For experiment [1], the system named is psoriasis-induced BALB/c mice. Kind of experiment: Psoriasis animal model (Aldara cream, Imiquimod). Format: in vivo, mouse. The method, then: To verify the therapeutic effect of the compound according to the present invention on psoriasis, a psoriasis animal model was established as follows, and the compound according to the present invention was administered to evaluate the alleviation of skin lesions and changes in immune cell patterns.
For the establishment of the psoriasis animal model, BALB/c mice (7 weeks old, female, 20 g) were purchased from HanabioTech Co., Ltd. and acclimatized to the rearing environment for one week.
Subsequently, the hair on the mouse back was shaved using a hair removal device for the first time, and then completely shaved using a depilatory cream (Nicrin Cream (80% thioglycolic acid, Il Dong Pharmaceutical)) for the second time. The mice were then kept for 24 hours to confirm the absence of skin damage.
To verify the psoriasis prevention and therapeutic effects of the compounds according to the present invention, the following experimental groups were established:
[Normal control group (Normal, Not Treatment), psoriasis-induced control group (Psoriasis, Not Treatment), psoriasis-induced vehicle control group (Psoriasis, Vehicle), experimental group (GO85, GO86, GO88, GO89, PBK-2024-010, PBK-2024-026, PBK-2025-002, PBK-2025-004, PBK-2025-016, PBK-2025-017, PBK-2025-023)]. […]
Body weights of mice in each group were measured on days 1, 4, and 8 after the start of injection and psoriasis induction. […]
To evaluate the therapeutic effect in a psoriasis-induced mouse model, the PASI (Psoriasis Area and Severity Index) score was measured.
The PASI score is based on three criteria: erythema, scaling, and skin thickness, each scored from 0 (none) to 4 (severe). […]
Observations were conducted daily at the same time, and the same observer visually assessed each criterion and recorded the scores, with the results presented in FIG. 13. […]
All samples were measured in duplicate, and the absorbance was measured at 450 nm using a microplate reader.

Experiment [2] deals with HCT-116 colon cancer cell lines. Kind of experiment: Invasion Assay using Matrigel, HCT-116. The experiment is classed as cell-based, human. Particulars: HCT-116, Matrigel invasion, 24 hours treatment. The protocol: To evaluate the metastasis inhibitory efficacy of the compounds of the present invention on HCT-116 colon cancer cell lines, an Invasion Assay using Matrigel was performed to assess the cells' invasion ability.
First, Matrigel was thawed on ice in RPMI-1640 medium without FBS, then diluted with DMEM at a ratio of 1:20.
The diluted Matrigel mixture was applied to the upper chamber at 100 μl per well, and 750 μl of RPMI-1640 without FBS was added to the lower chamber.
The plates were then incubated at 37° C. for 1 hour to allow the Matrigel to solidify.
After coating, the Matrigel mixture in the upper chamber was removed using a pipette, and the chamber was washed with RPMI without FBS.
Human-derived colorectal cancer cell line HCT-116, obtained from the Korean Cell Bank, was cultured in RPMI-1640 medium containing 10% FBS.
Following stabilization, the cells were harvested using Trypsin-EDTA treatment, centrifuged at 1,200 rpm for 3 minutes, the supernatant was removed, and the cells were resuspended in the same medium, the medium in the lower chamber was replaced with 750 μl of RPMI-1640 supplemented with 10% FBS, and the cells were seeded into the upper chamber at a density of 5×10^4 cells/well.
The cells were cultured for 24 hours after attachment, and then the compounds according to the present invention (G078, G085, G086, G088, G089, PBK-2024-010, PBK-2025-010, PBK-2025-013, PBK-2025-016) and the control substance DMSO were diluted and added to the upper chamber after removing the medium.
Additionally, the medium in the lower chamber was replaced with fresh RPMI-1640 containing FBS, and the culture was continued.
After an additional 24 hours, the medium was removed, and 1 ml of methanol was added for 10 minutes to fix the cells.
Subsequently, 1 ml of Hematoxylin was added and reacted for 5 minutes, followed by 1 ml of Eosin, which was reacted for 30 seconds. The sample was then washed with distilled water (DW).
After staining was complete, any remaining cells in the upper chamber were removed. Finally, the infiltrated cells were observed under a microscope, photographed, and the degree of infiltration was analyzed.

For experiment [3], the system named is phospho-PDK1 in SU-DHL-8 cells. Description: PDK1 phosphorylation (pPDK1) by flow cytometry in SU-DHL-8 cells. The experiment is classed as cell-based, human. The following applies: SU-DHL-8, 24 hours, pPDK1-PE flow cytometry, vs control group. The method, then: SU-DHL-8 cells were cultured in RPMI-1640 medium (containing 10% FBS, 100 U/mL penicillin, and 100 μg/mL streptomycin), and the cell concentration was adjusted to 1×10^6 cells/mL and seeded into a 12-well plate. After stabilizing the cells, the compound of the present invention was added, and the cells were cultured for 24 hours.
After drug treatment, the cells were harvested, and the Fc receptor blocking process was performed. The cells were then fixed and permeabilized using the Intracellular Staining Kit (Cat. No. BD554715) from BD Biosciences. Subsequently, the intracellular pPDK1 was stained using the pPDK1-PE fluorescently labeled antibody (BD Biosciences).
Referring to the figure, the vertical axis represents the phosphorylation level of PDK1 (phospho-PDK1 expression level), and the horizontal axis denotes the concentration-dependent treatment conditions of each compound.

Each structure is given as a SMILES string.

In the case of `CC1(C)CN(CCCCCCCCCCCCC(=O)Nc2nc(N)c3[nH]cnc3n2)CCO1` [Compound 11, 12-[4-(2,2-dimethylmorpholin-4-yl)]dodecyl-N-(6-aminopurine-2-yl)carboxamide], the “efficacy in improving dermatological symptoms” value in experiment [1] is recorded as “excellent efficacy in improving dermatological symptoms”. Further, in experiment [2], the “number of infiltrated cells” value was “reduction in the number of infiltrated cells”. In experiment [3], the “PDK1 phosphorylation (phospho-PDK1 expression level)” value is “stronger PDK1 inhibition”.

As for `Nc1ncccc1C(=O)NCCCCCCCCCCCCN1CCNCC1` [Compound 14, 2-Amino-N-(12-(piperazin-1-yl)dodecyl)nicotinamide], in experiment [1], the “efficacy in improving dermatological symptoms” value was “excellent efficacy in improving dermatological symptoms”. Moreover, the “PDK1 phosphorylation (phospho-PDK1 expression level)” value in experiment [3] is reported as “stronger PDK1 inhibition”.

Values taken from US20260184700A1, “PDK1 REGULATORY COMPOUND AND COMPOSITION CONTAINING THE SAME” (PROVIBIO CO., LTD., priority 2024, published 2026).
